{"source": "ChEMBL document CHEMBL5154747", "about": "“Discovery of new carbonic anhydrase IX inhibitors as anticancer agents by toning the hydrophobic and hydrophilic rims of the active site to encounter the dual-tail approach” (Eur J Med Chem, 2022)", "data": [{"tested_on": "U-251", "test": "Anticancer activity against human U-251 cells assessed as cell growth inhibition at 10 uM incubated for 48 hrs by SRB assay relative to control", "assay_type": "functional", "details": "read-out: GI", "units": {"inhibition of growth at 10 µM": "%"}, "values": [{"smiles": "Cc1ccc(/C=N/Nc2nc(Nc3ccccc3)nc(Nc3ccc(S(N)(=O)=O)cc3)n2)cc1", "inhibition of growth at 10 µM": 37}]}, {"tested_on": "LOX IMVI", "test": "Anticancer activity against human LOX IMVI cells assessed as cell growth inhibition at 10 uM incubated for 48 hrs by SRB assay relative to control", "assay_type": "functional", "details": "read-out: GI", "units": {"inhibition of growth at 10 µM": "%"}, "values": [{"smiles": "Cc1ccc(/C=N/Nc2nc(Nc3ccccc3)nc(Nc3ccc(S(N)(=O)=O)cc3)n2)cc1", "inhibition of growth at 10 µM": 45}]}, {"tested_on": "Malme-3M", "test": "Anticancer activity against human Malme-3M cells assessed as cell growth inhibition at 10 uM incubated for 48 hrs by SRB assay relative to control", "assay_type": "functional", "details": "read-out: GI", "units": {"inhibition of growth at 10 µM": "%"}, "values": [{"smiles": "Cc1ccc(/C=N/Nc2nc(Nc3ccccc3)nc(Nc3ccc(S(N)(=O)=O)cc3)n2)cc1", "inhibition of growth at 10 µM": "< 10"}]}, {"tested_on": "SK-MEL-28", "test": "Anticancer activity against human SK-MEL-28 cells assessed as cell growth inhibition at 10 uM incubated for 48 hrs by SRB assay relative to control", "assay_type": "functional", "details": "read-out: GI", "units": {"inhibition of growth at 10 µM": "%"}, "values": [{"smiles": "Cc1ccc(/C=N/Nc2nc(Nc3ccccc3)nc(Nc3ccc(S(N)(=O)=O)cc3)n2)cc1", "inhibition of growth at 10 µM": 24}]}, {"tested_on": "SK-MEL-5", "test": "Anticancer activity against human SK-MEL-5 cells assessed as cell growth inhibition at 10 uM incubated for 48 hrs by SRB assay relative to control", "assay_type": "functional", "details": "read-out: GI", "units": {"inhibition of growth at 10 µM": "%"}, "values": [{"smiles": "Cc1ccc(/C=N/Nc2nc(Nc3ccccc3)nc(Nc3ccc(S(N)(=O)=O)cc3)n2)cc1", "inhibition of growth at 10 µM": 23}]}, {"tested_on": "UACC-62", "test": "Anticancer activity against human UACC-62 cells assessed as cell growth inhibition at 10 uM incubated for 48 hrs by SRB assay relative to control", "assay_type": "functional", "details": "read-out: GI", "units": {"inhibition of growth at 10 µM": "%"}, "values": [{"smiles": "Cc1ccc(/C=N/Nc2nc(Nc3ccccc3)nc(Nc3ccc(S(N)(=O)=O)cc3)n2)cc1", "inhibition of growth at 10 µM": "< 10"}]}, {"tested_on": "IGROV-1", "test": "Anticancer activity against human IGROV-1 cells assessed as cell growth inhibition at 10 uM incubated for 48 hrs by SRB assay relative to control", "assay_type": "functional", "details": "read-out: GI", "units": {"inhibition of growth at 10 µM": "%"}, "values": [{"smiles": "Cc1ccc(/C=N/Nc2nc(Nc3ccccc3)nc(Nc3ccc(S(N)(=O)=O)cc3)n2)cc1", "inhibition of growth at 10 µM": 46}]}, {"tested_on": "OVCAR-3", "test": "Anticancer activity against human OVCAR-3 cells assessed as cell growth inhibition at 10 uM incubated for 48 hrs by SRB assay relative to control", "assay_type": "functional", "details": "read-out: GI", "units": {"inhibition of growth at 10 µM": "%"}, "values": [{"smiles": "Cc1ccc(/C=N/Nc2nc(Nc3ccccc3)nc(Nc3ccc(S(N)(=O)=O)cc3)n2)cc1", "inhibition of growth at 10 µM": 39}]}, {"tested_on": "OVCAR-5", "test": "Anticancer activity against human OVCAR-5 cells assessed as cell growth inhibition at 10 uM incubated for 48 hrs by SRB assay relative to control", "assay_type": "functional", "details": "read-out: GI", "units": {"inhibition of growth at 10 µM": "%"}, "values": [{"smiles": "Cc1ccc(/C=N/Nc2nc(Nc3ccccc3)nc(Nc3ccc(S(N)(=O)=O)cc3)n2)cc1", "inhibition of growth at 10 µM": 15}]}, {"tested_on": "OVCAR-8", "test": "Anticancer activity against human OVCAR-8 cells assessed as cell growth inhibition at 10 uM incubated for 48 hrs by SRB assay relative to control", "assay_type": "functional", "details": "read-out: GI", "units": {"inhibition of growth at 10 µM": "%"}, "values": [{"smiles": "Cc1ccc(/C=N/Nc2nc(Nc3ccccc3)nc(Nc3ccc(S(N)(=O)=O)cc3)n2)cc1", "inhibition of growth at 10 µM": 30}]}, {"tested_on": "SK-OV-3", "test": "Anticancer activity against human SK-OV-3 cells assessed as cell growth inhibition at 10 uM incubated for 48 hrs by SRB assay relative to control", "assay_type": "functional", "details": "read-out: GI", "units": {"inhibition of growth at 10 µM": "%"}, "values": [{"smiles": "Cc1ccc(/C=N/Nc2nc(Nc3ccccc3)nc(Nc3ccc(S(N)(=O)=O)cc3)n2)cc1", "inhibition of growth at 10 µM": "< 10"}]}, {"tested_on": "786-0", "test": "Anticancer activity against human 786-0 cells assessed as cell growth inhibition at 10 uM incubated for 48 hrs by SRB assay relative to control", "assay_type": "functional", "details": "read-out: GI", "units": {"inhibition of growth at 10 µM": "%"}, "values": [{"smiles": "Cc1ccc(/C=N/Nc2nc(Nc3ccccc3)nc(Nc3ccc(S(N)(=O)=O)cc3)n2)cc1", "inhibition of growth at 10 µM": 53}]}, {"tested_on": "ACHN", "test": "Anticancer activity against human ACHN cells assessed as cell growth inhibition at 10 uM incubated for 48 hrs by SRB assay relative to control", "assay_type": "functional", "details": "read-out: GI", "units": {"inhibition of growth at 10 µM": "%"}, "values": [{"smiles": "Cc1ccc(/C=N/Nc2nc(Nc3ccccc3)nc(Nc3ccc(S(N)(=O)=O)cc3)n2)cc1", "inhibition of growth at 10 µM": 38}]}, {"tested_on": "CAKI-1", "test": "Anticancer activity against human CAKI-1 cells assessed as cell growth inhibition at 10 uM incubated for 48 hrs by SRB assay relative to control", "assay_type": "functional", "details": "read-out: GI", "units": {"inhibition of growth at 10 µM": "%"}, "values": [{"smiles": "Cc1ccc(/C=N/Nc2nc(Nc3ccccc3)nc(Nc3ccc(S(N)(=O)=O)cc3)n2)cc1", "inhibition of growth at 10 µM": 39}]}, {"tested_on": "RXF 393", "test": "Anticancer activity against human RXF 393 cells assessed as cell growth inhibition at 10 uM incubated for 48 hrs by SRB assay relative to control", "assay_type": "functional", "details": "read-out: GI", "units": {"inhibition of growth at 10 µM": "%"}, "values": [{"smiles": "Cc1ccc(/C=N/Nc2nc(Nc3ccccc3)nc(Nc3ccc(S(N)(=O)=O)cc3)n2)cc1", "inhibition of growth at 10 µM": 102}]}, {"tested_on": "SN12C", "test": "Anticancer activity against human SN12C cells assessed as cell growth inhibition at 10 uM incubated for 48 hrs by SRB assay relative to control", "assay_type": "functional", "details": "read-out: GI", "units": {"inhibition of growth at 10 µM": "%"}, "values": [{"smiles": "Cc1ccc(/C=N/Nc2nc(Nc3ccccc3)nc(Nc3ccc(S(N)(=O)=O)cc3)n2)cc1", "inhibition of growth at 10 µM": 17}]}, {"tested_on": "UO-31", "test": "Anticancer activity against human UO-31 cells assessed as cell growth inhibition at 10 uM incubated for 48 hrs by SRB assay relative to control", "assay_type": "functional", "details": "read-out: GI", "units": {"inhibition of growth at 10 µM": "%"}, "values": [{"smiles": "Cc1ccc(/C=N/Nc2nc(Nc3ccccc3)nc(Nc3ccc(S(N)(=O)=O)cc3)n2)cc1", "inhibition of growth at 10 µM": 31}]}, {"tested_on": "Hs-578T", "test": "Anticancer activity against human Hs-578T cells assessed as cell growth inhibition at 10 uM incubated for 48 hrs by SRB assay relative to control", "assay_type": "functional", "details": "read-out: GI", "units": {"inhibition of growth at 10 µM": "%"}, "values": [{"smiles": "Cc1ccc(/C=N/Nc2nc(Nc3ccccc3)nc(Nc3ccc(S(N)(=O)=O)cc3)n2)cc1", "inhibition of growth at 10 µM": 37}]}, {"tested_on": "T47D", "test": "Anticancer activity against human T47D cells assessed as cell growth inhibition at 10 uM incubated for 48 hrs by SRB assay relative to control", "assay_type": "functional", "details": "read-out: GI", "units": {"inhibition of growth at 10 µM": "%"}, "values": [{"smiles": "Cc1ccc(/C=N/Nc2nc(Nc3ccccc3)nc(Nc3ccc(S(N)(=O)=O)cc3)n2)cc1", "inhibition of growth at 10 µM": 45}]}, {"tested_on": "MDA-MB-468", "test": "Anticancer activity against human MDA-MB-468 cells assessed as cell growth inhibition at 10 uM incubated for 48 hrs by SRB assay relative to control", "assay_type": "functional", "details": "read-out: GI", "units": {"inhibition of growth at 10 µM": "%"}, "values": [{"smiles": "Cc1ccc(/C=N/Nc2nc(Nc3ccccc3)nc(Nc3ccc(S(N)(=O)=O)cc3)n2)cc1", "inhibition of growth at 10 µM": 35}]}]}
